Measurements as given in patent publication US10213451B2, “Methods and compounds for modulating the secretion or expression of adhesion proteins or angiopoietins of cells” (PACIFIC ARROW LIMITED, priority 2004, dated 2019).
Several values for one entry are separate records, joined by “and”; a condition that tells them apart may be missing. Identical values can stand only once.

Experiments:
Format in all cases: cell-based, human
[1] = tested on: CD54 expression in ES2 cells; experiment: Microarray gene expression, Table 11; conditions: probe 202638_s_at
Procedure: (§1) Y/D is the ratio (in folds) of gene expression in cells treated with compound Y as compared with those of the no drug control (D),
(§2) YM/D is the ratio of gene expression in cells treated with compound YM (ACH-Y, Y without sugar moiety) compared with those of the no drug control (D)
(§3) Cell culture and drug-treatment.: ES2 cells were seeded in a T-25 flask with 4.5 million cells per flask for 24 hours. Cell culture was replaced with fresh medium with xanifolia-Y (Y) or DMSO no drug control (D) for 24 hours. Cells were then harvested for RNA isolation. Three experiments were done.
RNA extraction, labeling, hybridization, and data analysis. RNA was extracted from tumor cells using the Qiagen RNeasy Kit. RNA quality and quantity was checked by the Agilent BioAnalyzer and the NanoDrop® ND-1000 spectrophotometer respectively before further manipulation. […] The images were analyzed and quality control metrics recorded using Affymetrix GCOS software version 1.4. Lastly, the expression value for each gene was calculated using dChip PM-only model based or Plier algorithm.
Pairwise comparisons were made as follows: Treated vs. Control (Y vs. D), Modified Drug vs Control (YM/ACY-H vs. D) and Treated vs. Modified Drug (Y vs. YM/ACH-Y) Cel files analyzed using the Bioconductor package of R Statistical programming. […]

[2] = tested on: Fibronectin secretion from ES2 cells; experiment: Fibronectin secretion (Western blot), ES2 cells
[3] = tested on: thrombospondin in ES2 cells; experiment: Microarray gene expression, Table 15
Procedure: as §1, §2, §3
RNA extraction, labeling, hybridization, and data analysis. RNA was extracted from tumor cells using the Qiagen RNeasy Kit. RNA quality and quantity was checked by the Agilent BioAnalyzer and the NanoDrop® ND-1000 spectrophotometer respectively before further manipulation. The first and second cDNA strands were synthesized from 20 ng of total RNA using the Affymetrix T7 oligo(dT) primer protocol and kit for the two-cycle amplification. To produce amplified biotin-labeled-cRNA, the cDNA was […] by in vitro transcription using the MegaScript kit from Ambion. 15.0 μg of the labeled cRNA was fragmented and re-checked for concentration using the NanoDrop® ND-1000 spectrophotometer. A hybridization cocktail containing Affymetrix spike-in controls and fragmented labeled cRNA was loaded onto the Human U133 Plus 2.0 GeneChip® oligonucleotide array. The Affymetrix array (Affymetrix, Inc. Santa Clara, Calif.) is comprised of over 1,300,000 unique oligonucleotide features that represent greater than 38,500 well-substantiated human genes. The array was hybridized for 16 hours at 45° C. with rotation at 60 rpm then washed and stained with a strepavidin, R-phycoerythrin conjugate stain on the Affymetrix Fluidicis Station 450. Signal amplification was done using biotinylated antistreptavidin. The arrays were scanned using the GeneChip® 3000 confocal laser scanner with autoloader. The images were analyzed and quality control metrics recorded using Affymetrix GCOS software version 1.4. Lastly, the expression value for each gene was calculated using dChip PM-only model based or Plier algorithm.
Pairwise comparisons were made as follows: Treated vs. Control (Y vs. D), Modified Drug vs Control (YM/ACY-H vs. D) and Treated vs. Modified Drug (Y vs. YM/ACH-Y) Cel files analyzed using the Bioconductor package of R Statistical programming. Limma analysis generated a reasonable number of changing genes between the samples.
The raw data in the .CEL files were normalized by the GCRMA method (robust multi-array analysis). It is implemented in Bioconductor (http://www.bioconductor.org/). The raw signal intensity data were normalized, background corrected and summarized based on certain statistical models, and an expression value, in log 2-scale, is obtained per chip per probe set. Then the null hypothesis was tested that there's no significant changes in gene expression between the treatment pairs. This was done by LIMMA and is also implemented in Bioconductor. It uses empirical Bayes method to estimate the variance in gene expression. One comparison was made, namely, High Grade vs. Low Grade. The raw p-values were adjusted by the Benjamnin-Hochberg method for false discovery rate (FDR) control. All data sets contained a significant number of genes with a p-value less than 0.05, which is that the probability that a gene is NOT differential expressed (false positive) is 1:20.

[4] = ES2 cells, 10 ug/ml, listed as xanifolia-Y

SMILES | ICAM1 intercellular adhesion molecule 1 (CD54), gene expression ratio to no drug control (D) [1] | % inhibition of Fibronectin secretion ([2]; ES2 cells, 10 ug/ml) | Fibronectin secreted / FN band intensity, % of DMSO control ([2]; ES2 cells, 20 ug/ml) | inhibition at 20 µg/mL ([2]; Homo sapiens, ES-2, ES2 cells, 20 ug/ml) | THBS1 thrombospondin 1, gene expression ratio to no drug control (D) ([3]; probe 201108_s_at) | THBS1 thrombospondin 1, gene expression ratio to no drug control (D) ([3]; probe 201109_s_at) | THBS1 thrombospondin 1, gene expression ratio to no drug control (D) ([3]; probe 201110_s_at) | secretion of Fibronectin to medium over time ([2]; ES2 cells, 10 ug/ml, 1 to 24 hour) | reduction of Fibronectin secretion ([2]; ES2 cells, 10 ug/ml, 18 hours) | reduction of Fibronectin secretion ([2]; ES2 cells, 10 ug/ml, 24 hours, listed as Y) | reduction of Fibronectin secretion ([2]; ES2 cells, 10 ug/ml, 24 hours, listed as xanifolia-Y) | reduction of FN secretion at 24 hours after removal of drug ([2]; ES2 cells, 10 ug/ml, drug removed at 4 or 8 hours) | Fibronectin secreted / FN band intensity, % of DMSO control ([2]; ES2 cells, 10 ug/ml, listed as Y) | % inhibition of Fibronectin secretion ([2]; ES2 cells, 10 ug/ml, listed as Y3) | % inhibition of Fibronectin secretion [2, 4] | Fibronectin secreted / FN band intensity, % of DMSO control [2, 4] | earliest time at which inhibition of Fibronectin was observed ([2]; ES2 cells, after drug-treatment) | change in Fibronectin secretion ([2]; ES2 cells, first 7 hours of treatment)
C/C=C(/C)C(=O)O[C@H]1[C@H](OC(=O)/C(C)=C\C)[C@@]2(CO)C(CC1(C)C)C1=CCC3[C@@]4(C)CC[C@H](O)C(C)(C)C4CC[C@@]3(C)[C@]1(C)[C@@H](O)[C@H]2O (stereo partly shown) [ACH-Y] | 2.3 folds | less (or not observed) | 53%-75% | 48% | −2.2 folds | −6.2 folds | −4.5 folds | – | – | – | – | – | – | – | – | – | – | –
C/C=C(/C)C(=O)O[C@H]1[C@H](OC(=O)/C(C)=C\C)[C@@]2(CO)C(CC1(C)C)C1=CCC3[C@@]4(C)CC[C@H](O[C@@H]5OC(C(=O)O)[C@@H](O)C(O[C@@H]6O[C@@H](CO)C(O)C6O)C5O[C@@H]5OC(CO)[C@H](O)C(O)C5O)C(C)(C)C4CC[C@@]3(C)[C@]1(C)[C@@H](O)[C@H]2O (stereo partly drawn) [Xanifolia-Y, 3-O-[β-D-galactopyranosyl (1→2)]-α-L-arabinofuranosy (1→3)-β-D-glucuronopyranosyl-21,22-O-diangeloyl-3β, 15α, 16α, 21β, 22α, 28-hexahydroxyolean-12-ene] | 1.6 folds | – | – | – | −1.7 folds | −2.0 folds | −1.8 folds | no or only minimally secretion of Fibronectin | 40% | 31% and 30-40% and 38% and 46% | 46% | over 50% | 62% and 51% and 54% | 47% | 49% | 54% | 8 h | not noticeable
